Values belong to the molecule of their own block, whether it stands above or below them.
Assays:
Drp1 [1] = biological target: T1, Drp1 (Homo sapiens, UniProt O00429); assay: Drp1 recruitment to mitochondria in HPV(−) UM-SCC-22A cells (Western blotting of mitochondria-enriched fractions); type: cell-based; details: 5 uM peptide, 20 uM C18-pyr-cer, 1.5 hours
T1 construct: Western blotting using whole cell (UM-SCC-22A) lysates versus mitochondria-enriched fractions; endogenous in cells; host or cells: UM-SCC-22A
Description: Images were quantified using FIJI.
(§1) Immunoblotting. Cells were lysed in RIPA buffer plus protease inhibitor cocktail on ice for 15 minutes then centrifuged. 30ug of protein from the supernatant were run on Criterion™ TGX™ Precast Gels (Bio-Rad).
Cell fractionation. Cells were treated with 40 uM cisplatin or vehicle for eight hours, 20 uM C18-pyr-cer or vehicle and/or 5 uM scr-pept or E2F5-pept for 1.5 hours. Mitochondria isolation kit (ThermoFisher Scientific) was used as described by the manufacturer.

[2] = tested on: UM-SCC-22A-derived xenograft tumors; assay: HPV(−) UM-SCC-22A-derived xenograft tumor growth in SCID mice; type: in vivo
Description: (§2) To determine whether HPV(+) compared to HPV(−) HNSCC cells are more sensitive to stress-mediated growth inhibition in response to chemotherapeutic drugs, it was first established HPV(+) UM-SCC-47- and HPV(−) UM-SCC-22A-derived xenograft tumors in SCID mice. After the xenograft-derived tumors were ˜75-100 mm^3, the mice were treated with cisplatin (3.5 mg/kg) for two weeks, which is below its maximum tolerated doses (van Moorsel et al, 1999). Then, tumor volumes were measured at days 0 and 14 of treatment. […] After tumor growth measurements in the mice were taken, the tumors were surgically removed and the effects of cisplatin on CerS1-6 mRNA were measured by qRT-PCR.
Eight arginine residues (R8) were included on the N-terminus to enhance cell penetration of the E2F5 peptide (Rancher and Ryu, 2015).
In vivo studies. Severe combined immunodeficient (SCID) mice were purchased from Jackson Laboratories. Age- and sex-matched mice were used. All animal protocols were approved by the Institutional Animal Care and Use Committee at the Medical University of South Carolina. UM-SCC22A or UM-SCC47 cells (75,000) were implanted into the flanks of SCID mice (n=5-8 mice). When the tumors were palpable, the mice were treated every three days with 3.5 mg/kg cisplatin, 20 mg/kg C18-pyr-cer, or corresponding amount of vehicle control and/or 3.76 μg E2F5-peptide or scrambled control peptide. Tumor volume was measured using calipers. At the end of the 14-day treatment, the mice were euthanized and tumor tissues were collected (Sentelle et al, 2007; Saddoughi et al, 2013).

Drp1 [3] = assay: Drp1 oligomerization by Western blotting without reducing agents; type: cell-based; details: HPV(+) UM-SCC47 cells
Description: FIGS. 7A-F. E2F5/Drp1 complex enhances HPV-E7/ceramide-dependent lethal mitophagy. (A) UM-SCC47 cells were treated with cisplatin or C18-pyr-cer and Western blotting was performed with cell lysates in the absence of reducing agents in the lysing buffer to detect monomeric and dimeric Drp1 protein abundance compared to vehicle-treated controls. Actin was used as a loading control. (B-C) Cell death was assessed by trypan blue exclusion assay in UM-SCC47 cells expressing dominant-negative Drp1 mutant (K38A-DRP1) and treated with C18-pyr-cer (B) or cisplatin (C) compared to vector-transfected controls. […] (D-E) Association between E2F5 and Drp1 in response to ceramide stress (C18-pyr-cer) was measured in UM-SCC-47 cells using PLA (D) or immunoprecipitation followed by Western blotting (E) with anti-Drp1 or anti-E2F5 antibodies. IgG was used as a control. […] PLA signals were quantified as described by the manufacturer using the PLA quantification software. […] Effects of siRNA-mediated HPV-E6/E7 knockdown on pRB, HPV-E7 and p53 protein abundance were also confirmed by Western blotting compared to Scr-siRNA-transfected controls in the absence/presence of C18-pyr-cer (right panel). Total RB was used a loading control (Rb band, upper panel).
Immunoblotting. Cells were lysed in RIPA buffer plus protease inhibitor cocktail on ice for 15 minutes then centrifuged. […]

CerS1-6 mRNA = CerS1-6 mRNA by qRT-PCR in HPV(+) UM-SCC-47 xenograft-derived tumors; type: in vivo, mice; details: day 14 versus day 0
Description: as §2
Quantitative RT-PCR. RNA was extracted from cell pellets using RNeasy kit (Qiagen) per the manufacturer's instructions. cDNA was generated using equal amounts of RNA from each sample and iScript cDNA synthesis kit (Bio-Rad) per manufacturer's instructions. Reactions were carried out using SsoFast probes mix (Bio-Rad) and TaqMan primer probes (ThermoFisher Scientific) in a StepOne Plus qPCR cycler as described by the manufacturer.
(§3) In vivo studies. […] Age- and sex-matched mice were used. […] Tumor volume was measured using calipers.

[4] = tested on: UM-SCC-47-derived xenograft tumors; assay: HPV(+) UM-SCC-47-derived xenograft tumor growth in SCID mice; type: in vivo; details: HPV(+) UM-SCC-47 xenografts, cisplatin 3.5 mg/kg for two weeks, tumor volumes days 0 and 14
Description: as §2, §3

LC3B = LC3B lipidation by Western blotting in UM-SCC-47 cell extracts; type: cell-based; details: UM-SCC-47 cells, versus vehicle
Description: FIGS. 12A-C. Knockdown of autophagy inducer LC3 inhibits cisplatin-mediated cell death in HPV(+) HNSCC cells. (A) Induction of autophagy in response to cisplatin was assessed by detection of LC3B lipidation using Western blotting in HPV(+) UM-SCC-47 cell extracts with anti-LC3B antibody compared to vehicle (veh) treated controls. Actin was used as a loading control. […] Samples shown are from the same representative blot but not in contiguous lanes. (B-C) Effects of siRNA-mediated knockdown of LC3B on cisplatin-mediated cell death were measured and IC50 concentrations were calculated by MTT assays compared to Scr-siRNA-transfected controls. […] Si-RNA-mediated knockdown of LC3B was confirmed using Western blotting with anti-LC3B antibody compared to Scr-siRNA-transfected controls (C). Actin was used as a loading control.
as §1

CerS1 = CerS1 localization, Western blotting of cytoplasm versus mitochondria enriched fractions of UM-SCC-47 cells; type: cell-based; details: cisplatin 1 and 4 h versus 0 h
Description: FIGS. 2A-G. HPV-E6 enhances chemotherapy-mediated cellular stress and CerS1/ceramide-mediated lethal mitophagy. (A-B) Effects of siRNA-mediated knockdown of HPV-E6/E7 on HPV(+) UM-SCC-47 cell death was assessed by MTT compared to Scr-siRNA-transfected and/or vehicle-treated controls. Successful knockdown of HPV-E6/E7 proteins were confirmed by Western blot analysis (B). […] (C) Effects of ectopic expression of HPV-E6 versus E7 on HPV(−) UM-SCC-22A cell death were measured by MTT. HPV-E6/E7 protein abundance was measured by Western blotting. […] (D) Effects of shRNA-mediated knockdown of CerS1 on mitophagy in response to cisplatin were measured by live cell imaging confocal micrographs of UM-SCC-47 cells stained with LTG and MTR. Scr-shRNA-transfected and/or vehicle-treated cells were used as controls. […] Images were quantified using ImageJ. (E) Cytoplasmic versus mitochondrial localization of CerS1 in the presence/absence of cisplatin at 0, 1, and 4 h was measured by Western blotting using anti-CerS1 antibody in cytoplasm (cyto)—versus mitochondria (mito)-enriched cellular fractions of UM-SCC-47 cells. Actin and Tom 20 were used as controls for cytoplasm- and mitochondria-enriched fractions, respectively. […] (F-G) Effects of shRNA-mediated knockdown of CerS6, confirmed by Western blotting (F), on UM-SCC-47 cell death in response to cisplatin were measured by trypan blue exclusion assay (G). […]

UM-SCC-22A cells = assay: Growth inhibition in culture, IC50 determination by MTT assay; type: cell-based; details: UM-SCC-22A (HPV−) cells, 48 h; read-out: IC50 (concentration that inhibited growth by 50%)
Description: (§4) IC50 determination by MTT assay. Cells were plated in 96-well plates and allowed to adhere for 20 h, then treated with the indicated concentrations of drug. After 48 h treatment, the MTT assay (ATCC) was performed as described previously (Sentelle et al, 2012).

UM-SCC-47 cells = assay: as above; type: cell-based
Description: as §4

[5] = biological target: T2, retinoblastoma protein (RB) (UniProt P06400 2-928, limits assumed); assay: PLA with anti-GFP and anti-RB antibodies, UM-SCC-22A cells
T2 construct: whole, on cells; Endogenous intracellular protein, detected with anti-RB antibody; also called pRB
T2 sequence (looked up): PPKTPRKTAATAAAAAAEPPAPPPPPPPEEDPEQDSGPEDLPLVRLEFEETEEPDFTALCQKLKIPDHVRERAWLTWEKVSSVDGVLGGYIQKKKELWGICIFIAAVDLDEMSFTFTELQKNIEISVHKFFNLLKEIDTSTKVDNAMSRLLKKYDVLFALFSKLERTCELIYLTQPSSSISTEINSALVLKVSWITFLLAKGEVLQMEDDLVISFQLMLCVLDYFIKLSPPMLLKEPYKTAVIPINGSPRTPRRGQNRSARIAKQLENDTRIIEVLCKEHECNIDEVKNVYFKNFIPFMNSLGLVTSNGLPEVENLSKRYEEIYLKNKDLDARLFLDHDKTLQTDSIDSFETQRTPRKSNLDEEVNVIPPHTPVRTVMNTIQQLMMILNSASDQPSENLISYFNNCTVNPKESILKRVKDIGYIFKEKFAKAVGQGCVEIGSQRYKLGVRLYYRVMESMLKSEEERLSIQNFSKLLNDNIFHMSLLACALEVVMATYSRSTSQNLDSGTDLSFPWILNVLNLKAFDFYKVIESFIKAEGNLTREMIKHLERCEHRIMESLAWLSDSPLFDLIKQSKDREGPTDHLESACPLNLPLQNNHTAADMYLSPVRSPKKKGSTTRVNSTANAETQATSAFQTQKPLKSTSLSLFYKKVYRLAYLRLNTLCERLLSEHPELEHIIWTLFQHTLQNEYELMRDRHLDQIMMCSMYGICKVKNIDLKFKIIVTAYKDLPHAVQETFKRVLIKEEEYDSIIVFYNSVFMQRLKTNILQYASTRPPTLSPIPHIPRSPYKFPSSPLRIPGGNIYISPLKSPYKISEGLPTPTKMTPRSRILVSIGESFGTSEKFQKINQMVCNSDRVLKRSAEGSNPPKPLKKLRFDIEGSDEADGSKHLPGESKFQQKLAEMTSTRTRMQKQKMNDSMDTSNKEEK
Text: PLA images were quantified using the PLA software as described by the manufacturer. […] Vector-GFP was used as a control (right panel, C).

T1 sequence (O00429 whole entry): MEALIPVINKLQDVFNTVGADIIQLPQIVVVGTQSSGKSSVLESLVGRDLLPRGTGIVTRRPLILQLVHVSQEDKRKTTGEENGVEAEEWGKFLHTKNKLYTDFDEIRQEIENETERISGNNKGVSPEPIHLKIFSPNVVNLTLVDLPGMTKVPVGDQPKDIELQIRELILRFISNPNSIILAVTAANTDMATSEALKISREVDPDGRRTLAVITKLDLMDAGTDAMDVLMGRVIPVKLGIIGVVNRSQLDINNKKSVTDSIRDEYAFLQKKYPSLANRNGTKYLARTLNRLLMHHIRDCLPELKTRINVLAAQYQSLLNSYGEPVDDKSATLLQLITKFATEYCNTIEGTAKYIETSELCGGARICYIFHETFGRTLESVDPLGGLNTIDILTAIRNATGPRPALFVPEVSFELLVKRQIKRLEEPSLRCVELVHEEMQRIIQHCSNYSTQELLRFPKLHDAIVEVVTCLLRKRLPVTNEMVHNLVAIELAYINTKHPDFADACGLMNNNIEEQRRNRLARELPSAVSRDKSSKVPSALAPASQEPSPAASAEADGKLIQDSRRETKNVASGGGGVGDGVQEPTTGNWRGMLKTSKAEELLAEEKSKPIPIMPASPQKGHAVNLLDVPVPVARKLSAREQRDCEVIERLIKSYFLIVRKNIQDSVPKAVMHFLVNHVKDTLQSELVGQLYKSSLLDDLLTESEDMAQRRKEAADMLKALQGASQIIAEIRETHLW

Molecule: Biotin-RRRRRRRR-LILFVIKLHQDVNDMRNSNQDQTQSEDRESKWY [scr-pept]
- ceramide-induced Drp1 recruitment to mitochondria (Drp1 [1]): not
- tumor growth ([2]; UM-SCC-22A xenografts, 3.76 μg peptide, absence/presence of cisplatin 3.5 mg/kg every 3 days for 2 weeks): no effect

Molecule: N.N.[Cl][Pt][Cl] [cisplatin]
- Drp1 oligomerization and/or activation (Drp1 [3]): Drp1 oligomerization and/or activation was observed
- CerS1 and CerS6 mRNA in tumors (CerS1-6 mRNA): induced CerS1 and CerS6 mRNA
- inhibition of growth of xenografts in response to cisplatin [4]: ~75%
- LC3B lipidation (marker of autophagy induction) (LC3B): Increased LC3B lipidation
- accumulation of CerS1 in mitochondria (CerS1): increased accumulation of CerS1 in mitochondria
- IC50 (UM-SCC-22A cells): 28 µM
- IC50 (UM-SCC-47 cells; UM-SCC-47 (HPV+) cells, 48 h, read-out: IC50 (concentration that inhibited growth by 50%)): 8 µM
- reduction of cisplatin-mediated growth inhibition by knockdown of CerS1 (UM-SCC-47 cells; UM-SCC-47 cells, CerS1 shRNA versus Scr-shRNA, MTT): ~4 fold
- resistance to cisplatin-mediated growth inhibition upon knockdown of E6 and E7 (UM-SCC-47 cells; UM-SCC-47 cells, HPV-E6/E7 siRNA versus Scr-siRNA, MTT): ~8 fold
- sensitivity for drug-induced growth inhibition/cell death, UM-SCC-47 compared to UM-SCC-22A cells (UM-SCC-47 cells; cells in culture): ~3 fold
- tumor suppression of xenografts ([2]; HPV(−) UM-SCC-22A xenografts, cisplatin 3.5 mg/kg for two weeks): no detectable tumor suppression

- binding result [5]: binds
B1: dimerization domain deleted mutant of E2F5, GFP-tagged (E2F5^Δ84-177-GFP) (other)
chain: MAAAEPASSGQQAPAGQGQGQRPPPQPPQAQAPQPPPPPQLGGAGGGSSRHEKSLGLLTTKFVSLLQEAKDGVLDLKAAADTLICNCFNGDTLLAIQAPSGTQLEVPIPEMGQNGQKKYQINLKSHSGPIHVLLINKESSSSKPVVFPVPPPDDLTQPSSQSLTPVTPQKSSMATQNLPEQHVSERSQALQQTSATDISSAGSISGDIIDELMSSDVFPLLRLSPTPADDYNFNLDDNEGVCDLFDVQILNY
notes: Ectopically expressed in cells; not shown: GFP tag

From patent publication US20190255146A1, “POLYPEPTIDES FOR IMPROVED RESPONSE TO ANTI-CANCER THERAPY” (MUSC FOUNDATION FOR RESEARCH DEVELOPMENT, priority 2016, published 2019)
